Reference: patent US20230025510A1, “BIARYL ETHER-TYPE QUINAZOLINE DERIVATIVES” (DAIICHI SANKYO COMPANY, LIMITED, priority 2018, published 2023)

How the values were obtained:
Assay type in all cases: cell-based
[1] = system: Ba/F3-Mock cells; experiment: Cell proliferation suppression test (CellTiter-Glo, GI50), Ba/F3-Mock; settings: Mus musculus, BaF3, 72 h, 5 ng/mL IL-3, 3 days, N=4
Protocol: (§1) Cell proliferation suppression test Ba/F3-Mock, Ba/F3-EGFR WT, Ba/F3-EGFR ins. ASV, and Ba/F3-EGFR ins. SVD cell lines were cultured based on a culture medium of 10% FBS-containing RPMI 1640 supplemented with 1.5 ug/mL puromycin, and 5 ng/mL IL-3 and 100 ng/mL of EGF were further added to the culture solution for Ba/F3-Mock and Ba/F3-EGFR WT, respectively. The cells were cultured in a CO2 incubator set at 37° C., 5% CO2. Specimens prepared by dilution were seeded into 384-well tissue culture plates with Echo555 (Labcyte Inc.), and the cells were seeded thereto at 400 cells/well for Ba/F3-Mock, Ba/F3-EGFR WT, and Ba/F3-EGFR ins. SVD and at 200 cells/well for Ba/F3-EGFR ins. ASV (day 0), then they were cultured for an additional 3 days. On the day of the compound addition (day 0) and 3 days after the compound addition (day 3), ATP quantity was measured with CellTiter-Glo (registered trademark) 2.0 (Promega Corporation.), and used as an indicator of cell quantity (N=4). In the test, puromycin-free culture medium was used. Concentrations at which cell proliferation from day 0 to day 3 was inhibited by 50% (GIso) were calculated with EXCEL.

[2] = system: Ba/F3-EGFR WT cells; experiment: Cell proliferation suppression test (CellTiter-Glo, GI50), Ba/F3-EGFR WT; settings: Mus musculus, 72 h, 100 ng/mL EGF, 3 days, N=4
Protocol: as §1

[3] = system: Ba/F3-EGFR ins. ASV cells; experiment: Cell proliferation suppression test (CellTiter-Glo, GI50), Ba/F3-EGFR ins. ASV; settings: Mus musculus, 72 h, 3 days, N=4
Protocol: as §1

[4] = system: Ba/F3-EGFR ins. SVD cells; experiment: Cell proliferation suppression test (CellTiter-Glo, GI50), Ba/F3-EGFR ins. SVD; settings: Mus musculus, 72 h, 3 days, N=4
Protocol: as §1

Compound	GI50 [2] [nM]	GI50 [3] [nM]	GI50 [4] [nM]	GI50 [1] [nM]
C=CC(=O)N1CCC(Oc2cc3c(Nc4ccc(Oc5ccn(-c6ccnc(OC)c6)n5)cc4F)ncnc3cc2OC)CC1 [Example 9, 1-(4-{[4-(2-Fluoro-4-{[1-(2-methoxypyridin-4-yl)-1H-pyrazol-3-yl]oxy}anilino)-7-methoxyquinazolin-6-yl]oxy}piperidin-1-yl)prop-2-en-1-one]	280	17.1	15.3	9590
C=CC(=O)N1CCC(Oc2cc3c(Nc4ccc(Oc5ccn(-c6ccc(C7CC7)nc6)n5)cc4F)ncnc3cc2OC)CC1 [Example 31]	241	15.5	12.8	> 10000
COc1cc2ncnc(Nc3ccc(Oc4nn(CC(=O)NC(C)(C)C)cc4F)cc3Cl)c2cc1NC(=O)/C=C/CN1CC[C@H](F)C1 [Example 57, (2E)-N-{4-[4-({1-[2-(tert-Butylamino)-2-oxoethyl]-4-fluoro-1H-pyrazol-3-yl}oxy)-2-chloroanilino]-7-methoxyquinazolin-6-yl}-4-[(3S)-3-fluoropyrrolidin-1-yl]but-2-enamide]	369	8.5	4.1	5090
COc1cc2ncnc(Nc3ccc(Oc4ccn(C(=O)N5CCCC5)n4)cc3F)c2cc1NC(=O)/C=C/CN(C)C [Example 26, (2E)-4-(Dimethylamino)-N-[4-(2-fluoro-4-{[1-(pyrrolidin-1-ylcarbonyl)-1H-pyrazo1-3-yl]oxy}anilino)-7-methoxyquinazolin-6-yl]but-2-enamide]	191	17.5	53.7	1060
C=CC(=O)N1CCC(Oc2cc3c(Nc4ccc(Oc5ccn(C(=O)NC(C)C)n5)cc4F)ncnc3cc2OC)CC1 [Example 6, 3-{3-Fluoro-4-[(7-methoxy-6-{[1-(prop-2-enoyl)piperidin-4-yl]oxy}quinazolin-4-yl)amino]phenoxy}-N-(propan-2-yl)-1H-pyrazole-1-carboxamide]	175	19.2	19.2	5660
C=CC(=O)N1CCC(Oc2cc3c(Nc4ccc(Oc5ccn(-c6ccnc(F)c6)n5)cc4F)ncnc3cc2OC)CC1 [Example 30, 1-(4-{[4-(2-Fluoro-4-{[1-(2-fluoropyridin-4-yl)-1H-pyrazol-3-yl]oxy}anilino)-7-methoxyquinazolin-6-yl]oxy}piperidin-1-yl)prop-2-en-1-one]	121	13.5	14	> 10000

Second part, led by results:

GI50 [2] [nM]	GI50 [3] [nM]	GI50 [4] [nM]	Compound	GI50 [1] [nM]
731	25.6	88.1	COc1cc2ncnc(Nc3ccc(Oc4nc(CC(=O)NC(C)(C)C)cs4)cc3F)c2cc1NC(=O)/C=C/CN1CC[C@@H](OC)C1 [Example 61, (2E)-N-{4-[4-({4-[2-(tert-Butylamino)-2-oxoethyl]-1,3-thiazol-2-yl}oxy)-2-fluoroanilino]-7-methoxyquinazolin-6-yl}-4-[(3R)-3-methoxypyrrolidin-1-yl]but-2-enamide]	3120
110	12.4	10.9	C=CC(=O)N1CCC(Oc2cc3c(Nc4ccc(Oc5ccn(C(=O)NC(C)(CF)CF)n5)cc4F)ncnc3cc2OC)CC1 [Example 23, N-(1,3-Difluoro-2-methylpropan-2-yl)-3-{3-fluoro-4-[(7-methoxy-6-{[1-(prop-2-enoyl)piperidin-4-yl]oxy}quinazolin-4-yl)amino]phenoxy}-1H-pyrazole-1-carboxamide]	5530
497	11.9	10.7	COc1cc2ncnc(Nc3ccc(Oc4nn(CC(=O)NC(C)(C)C)cc4F)cc3F)c2cc1NC(=O)/C=C/CN1CC(OC)C1 [Example 60, (2E)-N-{4-[4-({1-[2-(tert-Butylamino)-2-oxoethyl]-4-fluoro-1H-pyrazol-3-yl}oxy)-2-fluoroanilino]-7-methoxyquinazolin-6-yl}-4-(3-methoxyazetidin-1-yl)but-2-enamide]	6030
